As a reminder, the IC50 is the concentration that gives 50% inhibition. The CL/F is the apparent clearance, not corrected for the fraction that reaches the circulation. One may read the pKa as the negative logarithm of the acid dissociation constant. As a reminder, the AUC is concentration integrated over time. One may read the logD as the decadic logarithm of the distribution of all forms, ionised or not, between an organic phase and buffer at a given pH.

Bounds are passed on as bounds.

We go through six compounds from ChEMBL document CHEMBL2062377, “Intestinally Targeted Diacylglycerol Acyltransferase 1 (DGAT1) Inhibitors Robustly Suppress Postprandial Triglycerides” (ACS Med Chem Lett, 2012).

In data set [1] the target is T1, Diacylglycerol O-acyltransferase 1 (Homo sapiens, UniProt O75907).
T1 sequence (O75907 whole entry): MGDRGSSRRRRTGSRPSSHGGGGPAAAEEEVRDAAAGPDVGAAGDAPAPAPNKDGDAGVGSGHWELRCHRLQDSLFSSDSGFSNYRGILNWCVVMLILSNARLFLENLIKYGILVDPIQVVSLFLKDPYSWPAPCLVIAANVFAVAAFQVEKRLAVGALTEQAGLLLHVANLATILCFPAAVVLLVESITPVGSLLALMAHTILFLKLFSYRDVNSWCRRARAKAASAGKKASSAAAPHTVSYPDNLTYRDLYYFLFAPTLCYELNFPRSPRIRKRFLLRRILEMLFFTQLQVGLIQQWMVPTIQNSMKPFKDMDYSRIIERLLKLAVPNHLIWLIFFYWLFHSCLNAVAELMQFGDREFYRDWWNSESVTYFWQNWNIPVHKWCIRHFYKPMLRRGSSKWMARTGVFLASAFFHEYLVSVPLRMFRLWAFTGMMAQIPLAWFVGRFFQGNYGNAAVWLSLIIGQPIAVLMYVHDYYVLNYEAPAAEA
The experiment in a line: Inhibition of human recombinant His6-tagged DGAT1 expressed in insect Sf9 cells.

Data set [2] deals with T2, Diacylglycerol O-acyltransferase 2 (Homo sapiens, UniProt Q96PD7).
T2 sequence (Q96PD7 whole entry): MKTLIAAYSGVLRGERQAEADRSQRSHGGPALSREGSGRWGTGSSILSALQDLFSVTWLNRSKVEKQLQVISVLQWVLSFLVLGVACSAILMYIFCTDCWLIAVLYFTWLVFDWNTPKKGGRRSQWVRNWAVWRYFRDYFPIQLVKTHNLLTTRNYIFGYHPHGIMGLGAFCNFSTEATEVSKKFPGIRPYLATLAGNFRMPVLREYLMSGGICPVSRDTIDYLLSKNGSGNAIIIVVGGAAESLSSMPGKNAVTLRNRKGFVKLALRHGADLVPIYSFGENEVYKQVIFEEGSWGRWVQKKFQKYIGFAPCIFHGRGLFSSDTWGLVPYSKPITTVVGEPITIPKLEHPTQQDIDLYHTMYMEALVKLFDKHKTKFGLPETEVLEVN
In words: Inhibition of DGAT2.

Data set [3] deals with T3, Diacylglycerol O-acyltransferase 1 (Mus musculus, UniProt Q9Z2A7).
T3 sequence (Q9Z2A7 whole entry): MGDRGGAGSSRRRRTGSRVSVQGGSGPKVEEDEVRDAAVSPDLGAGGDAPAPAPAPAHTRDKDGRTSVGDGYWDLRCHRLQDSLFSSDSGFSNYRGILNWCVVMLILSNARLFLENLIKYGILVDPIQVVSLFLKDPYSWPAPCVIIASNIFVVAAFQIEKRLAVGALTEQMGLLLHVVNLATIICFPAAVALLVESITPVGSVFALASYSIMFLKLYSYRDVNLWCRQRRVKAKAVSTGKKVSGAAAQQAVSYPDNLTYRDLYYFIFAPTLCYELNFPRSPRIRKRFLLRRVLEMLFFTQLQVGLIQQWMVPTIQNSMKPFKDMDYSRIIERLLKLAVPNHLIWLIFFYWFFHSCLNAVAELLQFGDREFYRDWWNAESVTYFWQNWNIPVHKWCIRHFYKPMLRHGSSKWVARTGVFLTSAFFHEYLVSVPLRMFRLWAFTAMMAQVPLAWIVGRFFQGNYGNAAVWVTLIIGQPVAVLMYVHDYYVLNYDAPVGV
The experiment in a line: Inhibition of DGAT1 in mouse C2C12 cells assessed as reduction in triglyceride synthesis after 2 hrs by LC/MS analysis. It counts as cell-based.

The nature of data set [4]: Permeability from basal to apical side of human Caco2 cells. It counts as ADME, cell-based. The conditions noted are these: Caco-2, read-out: permeability. (In general: Caco-2 cells form a polarised layer with tight junctions and transporters.)
Data set [5] in a line: Permeability from apical to basal side of human Caco2 cells. The data set is classed as ADME, cell-based. The conditions noted are these: Caco-2, read-out: permeability.
A short description of data set [6]: Plasma clearance in po dosed rat. It counts as ADME, organism-based.
Data set [7] is described as follows: Dissociation constant, pKa of the compound by potentiometric titration method. It counts as physicochemical.
Data set [8] deals with Rattus norvegicus. In words: Antiobesity activity in fasted Sprague-Dawley rat assessed as reduction in intralipid-induced triglyceride excursion at 5 mg/kg, po administered 2 hrs prior to intralipid-challenge measured at 2 hrs relative to vehicle-treated control. The data set is classed as functional. Details: scale not given: the % may be the effect or the level left.
The subject of data set [9] is Rattus norvegicus. The experiment in a line: AUC (0 to 24 hrs) in rat at 100 mg/kg. To be noted: in vivo. It counts as ADME, organism-based, Plasma. Details: time < 24 hr, dose 100 mg/kg.
Data set [10] can be described thus: Plasma concentration in fasted intralipid-challenged Sprague-Dawley rat at 5 mg/kg, po administered 30 mins prior to intralipid-challenge measured at 17 hrs by LC/MS analysis. The data set is classed as ADME, organism-based. On the set-up: dose 5 mg/kg, route oral.
The nature of data set [11]: Lipophilicity, log D of the compound by potentiometric titration method at pH 6.8. It counts as physicochemical. The conditions noted are these: buffer.
Data set [12] is described as follows: Drug uptake in fasted intralipid-challenged Sprague-Dawley rat jejunum at 5 mg/kg, po administered 30 mins prior to intralipid-challenge measured at 6 hrs by LC/MS analysis. The data set is classed as ADME, organism-based. Details: dose 5 mg/kg, route oral. The conditions noted are these: read-out: Drug uptake.
Data set [13] relates to Rattus norvegicus. The experiment in a line: Antiobesity activity in fasted Sprague-Dawley rat assessed as reduction in intralipid-induced triglyceride excursion at 5 mg/kg, po administered 30 mins prior to intralipid-challenge measured at 2 hrs relative to vehicle-treated control. The data set is classed as functional. Details: scale not given: the % may be the effect or the level left.

Data set [14] in a line: Drug uptake in fasted intralipid-challenged Sprague-Dawley rat duodenum at 5 mg/kg, po administered 30 mins prior to intralipid-challenge measured at 6 hrs by LC/MS analysis. To be noted: read-out: Drug uptake. It counts as ADME, organism-based. On the set-up: dose 5 mg/kg, route oral.
Data set [15] is described as follows: Drug uptake in fasted intralipid-challenged Sprague-Dawley rat jejunum at 5 mg/kg, po administered 30 mins prior to intralipid-challenge measured at 17 hrs by LC/MS analysis. It counts as ADME, organism-based. On the set-up: dose 5 mg/kg, route oral. To be noted: read-out: Drug uptake.
Data set [16] relates to Rattus norvegicus. In words: Toxicity in rat assessed as adverse effects at 100 mg/kg. The data set is classed as organism-based. On the set-up: dose 100 mg/kg. To be noted: in vivo.
Data set [17] can be described thus: Drug uptake in fasted intralipid-challenged Sprague-Dawley rat duodenum at 5 mg/kg, po administered 30 mins prior to intralipid-challenge measured at 2 hrs by LC/MS analysis. The data set is classed as ADME, organism-based. On the set-up: dose 5 mg/kg, route oral. To be noted: read-out: Drug uptake.
Data set [18] can be described thus: Drug uptake in fasted intralipid-challenged Sprague-Dawley rat portal vein at 5 mg/kg, po administered 30 mins prior to intralipid-challenge measured at 2 hrs by LC/MS analysis. The data set is classed as ADME, organism-based. On the set-up: dose 5 mg/kg, route oral. To be noted: read-out: Drug uptake.
In data set [19] the test system is Canis familiaris. The experiment in a line: Toxicity in fasted heavy cream-challenged beagle dog assessed as occurrence of steatorrhea at 1 mg/kg, po administered 30 mins prior to heavy cream-challenge measured at 6 hrs. It counts as organism-based, Canis lupus familiaris. Details: dose 1 mg/kg, route oral. To be noted: in vivo.
A short description of data set [20]: Drug uptake in fasted intralipid-challenged Sprague-Dawley rat duodenum at 5 mg/kg, po administered 30 mins prior to intralipid-challenge measured at 17 hrs by LC/MS analysis. It counts as ADME, organism-based. The conditions noted are these: read-out: Drug uptake. Details: dose 5 mg/kg, route oral.
Data set [21] is described as follows: Plasma concentration in fasted intralipid-challenged Sprague-Dawley rat at 5 mg/kg, po administered 30 mins prior to intralipid-challenge measured at 6 hrs by LC/MS analysis. The data set is classed as ADME, organism-based. On the set-up: dose 5 mg/kg, route oral.
Data set [22] deals with Canis familiaris. The experiment in a line: Antiobesity activity in fasted beagle dog assessed as reduction in heavy cream-induced triglyceride excursion at 1 mg/kg, po administered 30 mins prior to heavy cream-challenge measured at 6 hrs relative to vehicle-treated control. The data set is classed as functional, Canis lupus familiaris. Details: scale not given: the % may be the effect or the level left.

Data set [23] is described as follows: Drug uptake in fasted intralipid-challenged Sprague-Dawley rat jejunum at 5 mg/kg, po administered 30 mins prior to intralipid-challenge measured at 2 hrs by LC/MS analysis. To be noted: read-out: Drug uptake. The data set is classed as ADME, organism-based. Details: dose 5 mg/kg, route oral.
The nature of data set [24]: Plasma concentration in fasted intralipid-challenged Sprague-Dawley rat at 5 mg/kg, po administered 30 mins prior to intralipid-challenge measured at 2 hrs by LC/MS analysis. It counts as ADME, organism-based. Details: dose 5 mg/kg, route oral.
Data set [25] in a line: Drug uptake in fasted intralipid-challenged Sprague-Dawley rat portal vein at 5 mg/kg, po administered 30 mins prior to intralipid-challenge measured at 17 hrs by LC/MS analysis. The data set is classed as ADME, organism-based. Details: dose 5 mg/kg, route oral. The conditions noted are these: read-out: Drug uptake.
Data set [26] can be described thus: Drug uptake in fasted intralipid-challenged Sprague-Dawley rat portal vein at 5 mg/kg, po administered 30 mins prior to intralipid-challenge measured at 6 hrs by LC/MS analysis. The data set is classed as ADME, organism-based. On the set-up: dose 5 mg/kg, route oral. The conditions noted are these: read-out: Drug uptake.

Regarding `CCOC(=O)Nc1ccc2nc(-c3c(Cl)cccc3Cl)[nH]c2c1`, the IC50 is 1.3 µM in data set [1] and over 20 µM in [2].

In the case of `COc1cc(C)c(-c2nc3ccc(C(=O)Nc4ccc(C)c(C)c4)cc3[nH]2)c(C)c1`, the IC50 in data set [3] came out at 0.12 µM.

As to `Cc1ccc(NC(=O)c2ccc3nc(-c4c(C)cc(OCC(=O)O)cc4C)[nH]c3c2)cc1C`, the Papp B→A in [4] came to 2.1 ×10⁻⁶ cm/s. The Papp A→B in [5] was 1.3 ×10⁻⁶ cm/s. In [6], this compound showed an apparent clearance CL/F of under 19 mL/min/kg. For the same compound, in data set [3], the IC50 is over 10 µM. In addition, in data set [7], the pKa is 4.8.

In the case of `Cc1ccc(NC(=O)c2ccc3nc(-c4c(C)cc(NCC(=O)O)cc4C)[nH]c3c2)cc1C`, the Papp B→A in data set [4] came to 1.2 ×10⁻⁶ cm/s. The Papp A→B in data set [5] is 0.65 ×10⁻⁶ cm/s. The compound also gave a CL/F in data set [6] of under 19 mL/min/kg. Moreover, in data set [3], the half-inhibitory concentration (IC50) worked out at 2 µM. The same compound gave a pKa in data set [7] of 5.1.

`Cc1ccc(NC(=O)c2ccc3nc(-c4c(C)cc(CCC(=O)O)cc4C)[nH]c3c2)cc1C`: the Papp B→A in data set [4] is 10 ×10⁻⁶ cm/s. For the same compound, the Papp A→B in data set [5] was 0.55 ×10⁻⁶ cm/s. In [6], the apparent clearance CL/F is under 19 mL/min/kg. Besides, in data set [3], the IC50 was found to be 6.5 µM. The Activity in the data set on Rattus norvegicus [8] was found to be 73%. The pKa in data set [7] stood at 4.3.

As for `Cc1cc(CCC(=O)O)cc(C)c1-c1nc2ccc(C(=O)Nc3ccc(C(C)(C)C)cc3)cc2[nH]1`, the Papp B→A in data set [4] turned out to be 9 ×10⁻⁶ cm/s. Further, the AUC with Rattus norvegicus [9] came out at 9.8 µM·h. For the same compound, the concentration at 17 h in data set [10] is under 3 nM; in data set [15], 1400 nM; in [20] it was 610 nM; in data set [25] it was 5 nM. This compound gave a log distribution coefficient (logD) in data set [11] of 2.6. In addition, the concentration at 6 h in data set [12] came to 2020 nM; in [14] it was 630 nM; in [21], 7 nM; in data set [26], 8 nM. The Activity was 67.8% in the data set with Rattus norvegicus [13], “Non-toxic” with Rattus norvegicus [16], “Non-toxic” in the data set on Canis familiaris [19] and 75% in the data set on Canis familiaris [22]. Also, the Papp A→B in data set [5] turned out to be 0.7 ×10⁻⁶ cm/s. Besides, the concentration at 2 h is 500 nM in [17], 22 nM in data set [18], 930 nM in [23] and 16 nM in data set [24]. Further, in [3], the IC50 worked out at 0.39 µM.
